Reference: patent US9468593B2, “Oral composition” (KABUSHIKI KAISHA SANGI, priority 2012, dated 2016)

Experiment: Test for liquid permeation through dentinal tubules (Pashley's protocol, split chamber device)
Set-up: species or system human
Settings: component blended singly
Procedure: A healthy human evulsion tooth was used to cut the tooth into sections in such a manner that dentin and dentinal tubules were exposed. The resulting sections were polished at a thickness of about 500 μm and were subjected to ultrasonic cleaning. […] The resulting solution was used as a test solution. Then, the sections whose portions other than the test surface had been masked were soaked in the test solution at 37° C. for 9 min per day. This soaking treatment was conducted for 5 days.
In addition, a test for liquid permeation through dentinal tubules was conducted. […] A dentin section was interposed between an inlet chamber and an outlet chamber of the above device. Then, the test solution was placed in the inlet chamber to treat the dentin surface. In addition, a Ringer's solution was injected using pressure in the inlet chamber before and after the treatment. By measuring the amount of flow through the outlet chamber, the liquid permeation through dentinal tubules was evaluated.
The effect of inhibiting liquid permeation through dentinal tubules of each test solution was determined as follows: first, a difference between the amount of flow of the Ringer's solution before and that after the treatment was determined; and a liquid permeation inhibition rate of the dentinal tubules was then calculated in percent units by using the following equation. […]

With O.O.O=P([O-])([O-])O.[Ca+2] [calcium monohydrogen phosphate dihydrate] the “ability to occlude dentinal tubules of a tooth” value was “had an ability to occlude dentinal tubules of a tooth”.
